Experimental data as given in patent US20210393616A1, “PHARMACEUTICAL COMPOSITIONS AND METHODS FOR TREATING PSYCHOSIS” (UNIVERSITA' DEGLI STUDI DI CAGLIARI, priority 2018, published 2021).

Columns and labels:
[1] = system: D2 receptors; experiment: Contractility of the rabbit ear artery, antagonism of the selective D2 agonist quinpirol; details: for antagonism of the effect of the selective D2 agonist quinpirol: 100 nM
[2] = biological target: T1, human D2long receptor (Homo sapiens, UniProt P14416); experiment: Replacement of [3H]methyl-spiperone binding from human D2long receptor expressed by HEK-293 cells
T1 construct: expressed in transfected cells; host or cells: HEK-293
Description: In particular, the receptor binding study was conducted by analysing the ability to replace the binding of [^3H]methyl-spiperone from the human D2long receptor expressed by HEK-293 cells (Hall, D. A. and Strange, P. G., 1997, Brit. J. Pharmacol. 121:731-736).

[3] = system: rats; experiment: Amphetamine-induced hypermotility test; assay type: in vivo, rat; details: 3 mg/kg i.p.; amphetamine 2.5 mg/kg i.p.; FIG. 1
Description: Some behavioural tests were also conducted to identify possible antipsychotic properties of RS-79948-197.

[4] = system: extracellular levels of dopamine; experiment: Microdialysis of extracellular dopamine in rat medial prefrontal cortex; assay type: in vivo; details: free-moving rats, RS-79948-197 3 mg/kg i.p., clozapine 2.5 mg/kg i.p., FIG. 4
Description: The drugs were administered at time T=60 min, as indicated by the arrow. The values are expressed as a percentage of the basal value (mean+/−SEM).
Also, the effect of RS-79948-197 on the extracellular levels of dopamine in the rat prefrontal cerebral cortex, through microdialysis in free-moving rats, was further evaluated. As can be clearly seen in the appended FIG. 4, the effects of the two drugs are substantially overlapping, as both have increased the extracellular concentration of dopamine up to about 250% of the respective basal value. Given the hypothesis of cortical hypodopaminergy in the etiopathogenesis of schizophrenia, the ability of a drug to increase the cortical dopamine is considered a favourable effect for its antipsychotic properties.

[5] = system: rats; experiment: Quinpirol-induced stereotypies; assay type: in vivo, rat
Text: The data are the average of 6 rats and are expressed in total counts. *P<0.01 vs. treatment with physiological saline (Student's t-test).

[6] = system: rats; experiment: Pre-pulse inhibition (PPI) deficit induced by MK-801; assay type: in vivo, rat; details: RS-79948-197 3 mg/kg i.p.; MK-801 0.1 mg/kg i.p.; FIG. 3
Description: The data are the average of 4-8 rats. *P<0.05, **P<0.01 vs. VEH+MK (one-way ANOVA followed by Tukey's Test).
The activity of RS-79948-197 was also evaluated on the deficit of “pre-pulse inhibition” (PPI) induced by MK-801, an antagonist of NMDA receptors of glutamate. As already mentioned previously, this latter test is considered the “gold standard” for the evaluation of the possible atypical antipsychotic activity of a drug and is predictive of the efficacy on negative symptoms, as well as on positive ones, of schizophrenia.

T1 sequence (P14416 whole entry): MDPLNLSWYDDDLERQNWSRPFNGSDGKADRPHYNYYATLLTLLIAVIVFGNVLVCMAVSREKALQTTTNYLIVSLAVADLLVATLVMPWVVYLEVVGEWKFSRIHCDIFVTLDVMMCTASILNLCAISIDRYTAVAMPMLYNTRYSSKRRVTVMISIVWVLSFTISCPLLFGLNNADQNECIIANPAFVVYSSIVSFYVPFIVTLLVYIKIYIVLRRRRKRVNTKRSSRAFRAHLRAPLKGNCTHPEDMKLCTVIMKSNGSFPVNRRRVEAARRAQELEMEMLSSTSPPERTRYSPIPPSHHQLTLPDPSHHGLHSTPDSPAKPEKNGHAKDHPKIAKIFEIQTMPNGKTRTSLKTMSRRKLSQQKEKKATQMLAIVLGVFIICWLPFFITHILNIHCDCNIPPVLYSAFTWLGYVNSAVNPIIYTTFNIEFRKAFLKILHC

## CCN1CCCC1CNC(=O)c1cc(S(N)(=O)=O)ccc1OC (stereo not shown) [sulpiride, reference compound]
[1]
  antagonism of the effect of the selective D2 agonist quinpirol: about 40%

## CCS(=O)(=O)N1CCC[C@@H]2CN3CCc4cc(OC)ccc4[C@@H]3C[C@@H]21.Cl [RS-79948-197, (8aR,12aS,13aS)-5,8,8a,9,10, 11, 12, 12a, 13, 13a-decahydro-3-methoxy-12-(ethylsulphonyl)-6H-isoquino[2,1-g][1,6]naphthyridine]
[2]; human D2long receptor
  affinity relative to that of clozapine: about twice
[2]; human D2long receptor expressed by HEK-293 cells, read-out: Ki, inhibition of [3H]methyl-spiperone binding
  Ki: 0.095 µM
[3]
  total distance travelled by rats in 120 minutes: significantly decreased
[4]
  extracellular concentration of dopamine, percentage of basal value: about 250 % of the respective basal value
[5]; 3 mg/kg i.p., quinpirol 0.5 mg/kg i.p., FIG. 2
  stereotypies induced by quinpirol: effectively reduced
[5]; rats
  extrapyramidal effects per se: without inducing per se extrapyramidal effects
[6]
  PPI deficit induced by MK-801: effectively reduced
[1]
  antagonism of the effect of the selective D2 agonist quinpirol: 70%
[1]; higher concentrations than 100 nM
  effect on quinpirol-induced release at higher concentrations: completely cancelled
